Where two headings read alike, the source gives them in different places. Starred links: 1 amine or outer side, 2 acyl side, 3 side chain; linkers in the order of their positions; H or OH if unused. Positions of bridges follow the written chain, without caps; N, C: chain ends. Non-standard residues stand in square brackets, D forms with d. Residues, ends and D or L forms follow the SMILES beside them. ξ: configuration not given here. Phe(2,4-F2) = N[C@@H](Cc1ccc(F)cc1F)C(=O)O; Phe(3-Me) = Cc1cccc(C[C@H](N)C(=O)O)c1; γGlu = O=C(O)[C@H](CCC(=O)[*:2])N[*:1]; 2Nal = N[C@@H](Cc1ccc2ccccc2c1)C(=O)O; βAsp = O=C(O)[C@H](CC(=O)[*:2])N[*:1]; Cit = NC(=O)NCCC[C@H](N)C(=O)O; Ahp(2) = CCCCC[C@H](N)C(=O)O; NMeNle = CCCC[C@H](NC)C(=O)O; Tle = CC(C)(C)[C@H](N)C(=O)O; NMeS = CN[C@@H](CO)C(=O)O; NHexGly = CCCCCCNCC(=O)O; Nle = CCCC[C@H](N)C(=O)O; Orn = NCCC[C@H](N)C(=O)O; Aun = NCCCCCCCCCCC(=O)O; AEEA = NCCOCCOCC(=O)O; ξS = NC(CO)C(=O)O
Biological target: T1, mouse VISTA (mVISTA) (Mus musculus, UniProt Q9D659)
T1 construct: expressed in transfected cells; host or cells: Human embryonic kidney 293T cells
T1 sequence (Q9D659 33-308): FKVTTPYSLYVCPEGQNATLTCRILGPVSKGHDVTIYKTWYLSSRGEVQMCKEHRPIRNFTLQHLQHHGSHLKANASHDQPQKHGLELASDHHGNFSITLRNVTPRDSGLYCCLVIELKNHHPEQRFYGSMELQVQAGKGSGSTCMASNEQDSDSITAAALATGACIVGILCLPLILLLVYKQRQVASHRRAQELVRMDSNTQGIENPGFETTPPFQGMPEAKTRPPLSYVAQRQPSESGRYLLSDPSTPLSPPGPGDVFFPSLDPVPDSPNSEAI
Assay: Cell-Based Binding High-Content Assay For mVISTA (HC CBA mVISTA)
Procedure, shortened: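 mVISTA-293T, 4,000 cells/well; cpd ± washout step; biotin-peptide 2 nM final, 30 min RT; SA-Alexa 647 30 min; formaldehyde/Hoechst fix; HCS imaging; 4PL IC50.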

[1] = cell-based binding high-content assay, read-out: HC CBA miPrISTA IC50

SMILES	IC50 (read-out: HC CBA mVISTA IC50) [nM]	also measured
CCCCCCN1CC(=O)N[C@@H](Cc2ccc(O)cc2)C(=O)N[C@@H](CCCCC)C(=O)N[C@@H](CC(N)=O)C(=O)N[C@@H](CCCNC(=N)N)C(=O)N(C)[C@@H](CCCC)C(=O)N[C@@H](CCCCC)C(=O)N2CCC[C@H]2C(=O)N[C@@H](C(C)C)C(=O)N[C@@H](C(C)C)C(=O)N[C@H](C(=O)NC(CO)C(=O)O)CSCC(=O)N[C@@H](Cc2ccc(F)cc2F)C(=O)N[C@@H](Cc2c[nH]c3ccccc23)C(=O)N[C@@H](CC(=O)O)C1=O (some centres unmarked) [compound 1221] ({CH2CO}-[Phe(2,4-F2)]WD[NHexGly]Y[Ahp(2)]NR[NMeNle][Ahp(2)]PVVC[ξS]-OH; thioether N-14)	20.3	–
CCCCCCN1CC(=O)N[C@@H](Cc2ccc(O)cc2)C(=O)N[C@@H](CCCC)C(=O)N[C@@H](CC(N)=O)C(=O)N[C@@H](CCCNC(=N)N)C(=O)N(C)[C@@H](CCCC)C(=O)N[C@@H](CCCCC)C(=O)N2CCC[C@H]2C(=O)N[C@@H](C(C)C)C(=O)N[C@@H](C(C)C)C(=O)N[C@H](C(=O)NCC(=O)O)CSCC(=O)N[C@@H](Cc2ccc3ccccc3c2)C(=O)N[C@@H](Cc2c[nH]c3ccccc23)C(=O)N[C@@H](CC(=O)O)C1=O [compound 1248] ({CH2CO}-[2Nal]WD[NHexGly]Y[Nle]NR[NMeNle][Ahp(2)]PVVCG-OH; thioether N-14)	–	IC50 (cell-based binding high-content assay, mVISTA, the 15th table, read-out: HC CBA mVISTA IC50): 38.4 nM
CCCCCCN1CC(=O)N[C@@H](Cc2ccc(O)cc2)C(=O)N[C@@H](C(C)C)C(=O)NCC(=O)N[C@@H](CCCNC(N)=O)C(=O)N[C@@H](CC(C)C)C(=O)N[C@@H](CCCCC)C(=O)N2CCC[C@H]2C(=O)N[C@@H](C(C)C)C(=O)N[C@@H](CC(=O)O)C(=O)N[C@H](C(=O)NCCOCCOCC(=O)N[C@@H](CC(=O)O)C(=O)NCCOCCOCC(=O)NCCCCCCCCCCC(=O)O)CSCC(=O)N[C@@H](Cc2ccc3ccccc3c2)C(=O)N[C@@H](Cc2ccc(O)cc2)C(=O)N[C@@H](CC(=O)O)C1=O [compound 2308] ({CH2CO}-[2Nal]YD[NHexGly]YVG[Cit]L[Ahp(2)]PVDC[AEEA]D[AEEA][Aun]-OH; thioether N-14)	–	IC50 [1]: 14.6 nM
CCCCCCN1CC(=O)N[C@@H](Cc2ccc(O)cc2)C(=O)N[C@@H](CC(C)C)C(=O)N[C@@H](CC(N)=O)C(=O)N[C@@H](CCCN)C(=O)N(C)[C@@H](CCCC)C(=O)N[C@@H](CCCCC)C(=O)N2CCC[C@H]2C(=O)N[C@@H](C(C)(C)C)C(=O)N[C@@H](CC(=O)O)C(=O)N[C@H](C(=O)NCCOCCOCC(=O)N[C@@H](CCC(=O)NCCOCCOCC(=O)NCCCCCCCCCCC(=O)O)C(=O)O)CSCC(=O)N[C@@H](Cc2ccccc2)C(=O)N[C@@H](Cc2c[nH]c3ccccc23)C(=O)N[C@@H](CC(=O)O)C1=O [compound 2283] ({CH2CO}-FWD[NHexGly]YLN[Orn][NMeNle][Ahp(2)]P[Tle]DC[AEEA][γGlu][AEEA][Aun]-OH; thioether N-14)	27.8	–
CCCCCCN1CC(=O)N[C@@H](Cc2ccc(O)cc2)C(=O)N[C@@H](CC(C)C)C(=O)N[C@@H](CC(N)=O)C(=O)N[C@@H](CCCNC(=N)N)C(=O)N[C@@H](CC(C)C)C(=O)N[C@@H](CCCCC)C(=O)N2CCC[C@H]2C(=O)N[C@@H](C(C)C)C(=O)N[C@@H](C(C)C)C(=O)N[C@H](C(=O)NCC(=O)O)CSCC(=O)N[C@@H](Cc2ccccc2)C(=O)N[C@@H](Cc2cccc(C)c2)C(=O)N[C@@H](CC(=O)O)C1=O [compound 1328] ({CH2CO}-F[Phe(3-Me)]D[NHexGly]YLNRL[Ahp(2)]PVVCG-OH; thioether N-14)	2	–
CCCCCCN1CC(=O)N[C@@H](Cc2ccc(O)cc2)C(=O)N[C@@H](CCCC)C(=O)N[C@@H](CC(N)=O)C(=O)N[C@@H](CCCNC(=N)N)C(=O)N(C)[C@@H](CCCC)C(=O)N[C@@H](CCCCC)C(=O)N2CCC[C@H]2C(=O)N[C@@H](C(C)C)C(=O)N[C@@H](CC(=O)O)C(=O)N[C@H](C(=O)NCC(=O)O)CSCC(=O)N[C@@H](Cc2cccc(C)c2)C(=O)N[C@@H](Cc2ccc(O)cc2)C(=O)N[C@@H](CC(=O)O)C1=O [compound 1211] ({CH2CO}-[Phe(3-Me)]YD[NHexGly]Y[Nle]NR[NMeNle][Ahp(2)]PVDCG-OH; thioether N-14)	22.1	–
CCCCCCN1CC(=O)N[C@@H](Cc2ccc(O)cc2)C(=O)N[C@@H](C(C)C)C(=O)N[C@@H](CC(N)=O)C(=O)N[C@@H](CCCNC(=N)N)C(=O)N[C@@H](CC(C)C)C(=O)N[C@@H](CCCCC)C(=O)N2CCC[C@H]2C(=O)N[C@@H](C(C)C)C(=O)N2CCC[C@H]2C(=O)N[C@H](C(=O)NCC(=O)O)CSCC(=O)N[C@@H](Cc2ccccc2)C(=O)N[C@@H](Cc2ccc(O)cc2)C(=O)N[C@@H](CC(=O)O)C1=O [compound 1122] ({CH2CO}-FYD[NHexGly]YVNRL[Ahp(2)]PVPCG-OH; thioether N-14)	37.6	–
CCCCCCN1CC(=O)N[C@@H](Cc2ccc(O)cc2)C(=O)N[C@@H](CCCC)C(=O)N[C@@H](CC(N)=O)C(=O)N[C@@H](CCCNC(=N)N)C(=O)N(C)[C@@H](CCCC)C(=O)N[C@@H](CCCCC)C(=O)N2CCC[C@H]2C(=O)N[C@@H](C(C)C)C(=O)N[C@@H](CC(=O)O)C(=O)N[C@H](C(=O)NCCOCCOCC(=O)N[C@@H](CC(=O)O)C(=O)NCCOCCOCC(=O)NCCCCCCCCCCC(=O)O)CSCC(=O)N[C@@H](Cc2ccc3ccccc3c2)C(=O)N[C@@H](Cc2c[nH]c3ccccc23)C(=O)N[C@@H](CC(=O)O)C1=O (stereo in doubt) [compound 2290]	–	IC50 [1]: 39.1 nM
CCCCCCN1CC(=O)N[C@@H](Cc2ccc(O)cc2)C(=O)N[C@@H](CCCC)C(=O)N[C@@H](CC(=O)O)C(=O)N[C@@H](CCCN)C(=O)N(C)[C@@H](CCCC)C(=O)N[C@@H](CCCCC)C(=O)N2CCC[C@H]2C(=O)N[C@@H](C(C)C)C(=O)N[C@@H](CC(=O)O)C(=O)N[C@H](C(=O)N[C@@H](CC(=O)O)C(N)=O)CSCC(=O)N[C@@H](Cc2cccc(C)c2)C(=O)N[C@@H](Cc2c[nH]c3ccccc23)C(=O)N[C@@H](CC(=O)O)C1=O [compound 1439] ({CH2CO}-[Phe(3-Me)]WD[NHexGly]Y[Nle]D[Orn][NMeNle][Ahp(2)]PVDCD-NH2; thioether N-14)	–	IC50 (the 19th table, scaffold drawing 22, read-out: HC CBA mVISTA IC50): 9.3 nM
CCCCCCN1CC(=O)N[C@@H](Cc2ccc(O)cc2)C(=O)N[C@@H](CCCC)C(=O)N[C@@H](CC(N)=O)C(=O)N[C@@H](CCCNC(=N)N)C(=O)N(C)[C@@H](CCCC)C(=O)N[C@@H](CCCCC)C(=O)N2CCC[C@H]2C(=O)N[C@@H](C(C)(C)C)C(=O)N[C@@H](C(C)C)C(=O)N[C@H](C(=O)NCCOCCOCC(=O)N[C@@H](CCC(=O)NCCOCCOCC(=O)NCCCCCCCCCCC(=O)O)C(=O)O)CSCC(=O)N[C@@H](Cc2ccccc2)C(=O)N[C@@H](Cc2c[nH]c3ccccc23)C(=O)N[C@@H](CC(=O)O)C1=O [compound 2239] ({CH2CO}-FWD[NHexGly]Y[Nle]NR[NMeNle][Ahp(2)]P[Tle]VC[AEEA][γGlu][AEEA][Aun]-OH; thioether N-14)	48.6	–
CCCCCCN1CC(=O)N[C@@H](Cc2ccc(O)cc2)C(=O)N[C@@H](CC(C)C)C(=O)N[C@@H](CC(N)=O)C(=O)N[C@@H](CCCNC(=N)N)C(=O)N[C@@H](CC(C)C)C(=O)N[C@@H](CCCCC)C(=O)N2CCC[C@H]2C(=O)N[C@@H](C(C)C)C(=O)N[C@@H](C(C)C)C(=O)N[C@H](C(=O)NCCOCCOCC(=O)N[C@@H](CC(=O)O)C(=O)NCCOCCOCC(=O)NCCCCCCCCCCC(=O)O)CSCC(=O)N[C@@H](Cc2ccccc2)C(=O)N[C@@H](Cc2cccc(C)c2)C(=O)N[C@@H](CC(=O)O)C1=O (stereo in doubt) [compound 2289]	–	IC50 [1]: 15.7 nM
CCCCCCN1CC(=O)N[C@@H](Cc2ccc(O)cc2)C(=O)N[C@@H](CCCC)C(=O)N[C@@H](CC(N)=O)C(=O)N[C@@H](CCCNC(N)=O)C(=O)N(C)[C@@H](CCCC)C(=O)N[C@@H](CCCCC)C(=O)N2CCC[C@H]2C(=O)N[C@@H](C(C)C)C(=O)N[C@@H](CC(=O)O)C(=O)N[C@H](C(=O)NCC(=O)O)CSCC(=O)N[C@@H](Cc2ccc3ccccc3c2)C(=O)N[C@@H](Cc2ccc(O)cc2)C(=O)N[C@@H](CC(=O)O)C1=O [Ex 1301] ({CH2CO}-[2Nal]YD[NHexGly]Y[Nle]N[Cit][NMeNle][Ahp(2)]PVDCG-OH; thioether N-14)	–	IC50 (cell-based binding high-content assay, mVISTA, the 16th table, read-out: HC CBA mVISTA IC50): 5.6 nM
CCCCCCN1CC(=O)N[C@@H](Cc2ccc(O)cc2)C(=O)N[C@@H](CCCC)C(=O)N[C@@H](CC(N)=O)C(=O)N[C@@H](CCCNC(=N)N)C(=O)N(C)[C@@H](CCCC)C(=O)N[C@@H](CCCCC)C(=O)N2CCC[C@H]2C(=O)N[C@@H](C(C)C)C(=O)N[C@@H](CC(=O)O)C(=O)N[C@H](C(=O)N[C@@H](CCCN)C(=O)N[C@@H](CC(N)=O)C(=O)O)CSCC(=O)N[C@@H](Cc2ccc3ccccc3c2)C(=O)N[C@@H](Cc2c[nH]c3ccccc23)C(=O)N[C@@H](CC(=O)O)C1=O [compound 1139] ({CH2CO}-[2Nal]WD[NHexGly]Y[Nle]NR[NMeNle][Ahp(2)]PVDC[Orn]N-OH; thioether N-14)	36.2	–
CCCCCCN1CC(=O)N[C@@H](Cc2ccc(O)cc2)C(=O)N[C@@H](CC(C)C)C(=O)N[C@@H](CC(N)=O)C(=O)N[C@@H](CCCNC(=N)N)C(=O)N(C)[C@@H](CO)C(=O)N[C@@H](CCCCC)C(=O)N2CCC[C@H]2C(=O)N[C@@H](C(C)(C)C)C(=O)N[C@@H](CO)C(=O)N[C@H](C(=O)N[C@@H](CC(=O)NCCOCCOCC(=O)N[C@@H](CC(=O)O)C(=O)NCCOCCOCC(=O)NCCCCCCCCCCC(=O)O)C(=O)O)CSCC(=O)N[C@@H](Cc2ccccc2)C(=O)N[C@@H](Cc2ccc(O)cc2)C(=O)N[C@@H](CC(=O)O)C1=O [compound 2033] ({CH2CO}-FYD[NHexGly]YLNR[NMeS][Ahp(2)]P[Tle]SC[βAsp][AEEA]D[AEEA][Aun]-OH; thioether N-14)	–	IC50 (cell-based binding high-content assay, mVISTA, read-out: HC CBA miPr ISTA IC50): 18.4 nM

Source: patent publication US20240218022A1, “ANTI-VISTA MACROCYCLIC PEPTIDES AND COMPOSITIONS” (BRISTOL-MYERS SQUIBB COMPANY, priority 2022, published 2024)
